Experimental data reported in patent US4554287A, “Antihypertensive 7-[2-(dialkylamino)ethyl]-4-hydroxy-1,3-benzimidazol-2-ones” (Smithkline Beckman Corporation, priority 1984, dated 1985).
Where two headings read alike, the source gives them in different places.

Experiments:
D2 -receptors [1] = assay: D2-agonist activity (test not specified); conditions: presynaptic dopaminergic receptors on sympathetic nerve terminals
Text: Otherwise speaking, the main locus of action is at the presynaptic dopaminergic receptors or sympathetic nerve terminals which may also be called "D2 -receptors." Activation of the D2 -receptors on the sympathetic nerve terminals inhibits the release of norepinephrine, thereby inhibiting the increases in cardiac rate and the peripheral vasoconstriction resulting from stimulation of the sympathetic nervous system. These are beneficial cardiovascular actions in those conditions involving excessive or inappropriate levels of sympathetic nervous system stimulation.

D2 -receptors [2] = target: T1, D2 -receptors (Oryctolagus cuniculus, UniProt G1T1Q0); assay: perfused rabbit ear artery test for D2-agonist activity
T1 construct: perfused rabbit ear artery test; from tissue; host or cells: perfused rabbit ear artery (sympathetic nerve terminals)
T1 sequence (G1T1Q0 1-443): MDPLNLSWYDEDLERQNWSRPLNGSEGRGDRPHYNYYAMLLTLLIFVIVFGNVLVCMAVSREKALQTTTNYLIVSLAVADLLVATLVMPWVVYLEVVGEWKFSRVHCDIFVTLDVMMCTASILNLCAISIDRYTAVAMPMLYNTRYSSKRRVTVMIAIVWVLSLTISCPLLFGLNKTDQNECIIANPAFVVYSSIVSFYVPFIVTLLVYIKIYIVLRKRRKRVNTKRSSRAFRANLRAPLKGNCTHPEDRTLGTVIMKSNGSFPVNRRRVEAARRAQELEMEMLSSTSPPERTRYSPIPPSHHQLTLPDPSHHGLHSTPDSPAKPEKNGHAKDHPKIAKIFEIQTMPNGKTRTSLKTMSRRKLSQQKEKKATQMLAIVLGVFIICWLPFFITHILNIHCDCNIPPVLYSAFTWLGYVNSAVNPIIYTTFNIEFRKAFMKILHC
Text: In the perfused rabbit ear artery test for D2 -agonist activity [J. P. Hieble et al., Arch.

Row | Structure (SMILES) | D2 -agonist activity (in words) (D2 -receptors [1]) | EC50 (D2 -receptors [2]; perfused rabbit ear artery, D2 -agonist activity, read-out: EC50) [µM] | EC50 (D2 -receptors [2]) [µM]
1 | CCCN(CCC)CCc1ccc(O)c2[nH]c(=O)[nH]c12 [7-[2-(N,N-di-n-propylamino)ethyl]-4-hydroxy-1,3-benzimidazol-2-one] | peripheral D2 -agonists | ~0.009 | 
2 | CCCN(CCC)CCc1ccc(O)c(O)c1 [N,N-di-n-propyldopamine, reference compound] |  |  | 0.05 to 0.06
